In US8415469B2, “Compounds and methods for kinase modulation, and indications therefor” (Plexxikon Inc., priority 2005, dated 2013):

Legend:
Assay type in all cases: biochemical
Kit = target: T1, Kit (Homo sapiens, UniProt P10721); assay: AlphaScreen kinase assay, Kit; conditions: read-out: IC50, activity toward kinase Kit
T1 construct: P1332.N6 BI PTP KIT M552-K948-X COD; His6 (N); made in house; host or cells: E. coli (PTP1B co-expressed)

Jnk1 = target: T2, Jnk1 (Homo sapiens, UniProt P45983); assay: AlphaScreen kinase assay, Jnk1; conditions: read-out: IC50, activity toward kinase Jnk1
T2 construct: purchased Upstate Biotechnology
T2 sequence (P45983 whole entry): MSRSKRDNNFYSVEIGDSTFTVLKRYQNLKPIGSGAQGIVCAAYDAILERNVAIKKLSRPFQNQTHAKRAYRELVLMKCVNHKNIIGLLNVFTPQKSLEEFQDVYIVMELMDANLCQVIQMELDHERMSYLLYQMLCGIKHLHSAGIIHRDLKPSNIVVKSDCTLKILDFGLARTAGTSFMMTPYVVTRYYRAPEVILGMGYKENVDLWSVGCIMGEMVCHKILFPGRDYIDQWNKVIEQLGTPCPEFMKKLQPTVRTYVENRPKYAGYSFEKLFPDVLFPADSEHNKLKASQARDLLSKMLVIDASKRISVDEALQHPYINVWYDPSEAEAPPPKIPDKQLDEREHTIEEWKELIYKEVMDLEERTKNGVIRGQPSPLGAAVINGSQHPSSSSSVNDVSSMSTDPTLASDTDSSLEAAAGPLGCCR

Fms = target: T3, Fms (Homo sapiens, UniProt P07333); assay: AlphaScreen kinase assay, Fms; conditions: read-out: IC50, activity toward kinase Fms
T3 construct: purchased Upstate Biotechnology
T3 sequence (P07333 20-972): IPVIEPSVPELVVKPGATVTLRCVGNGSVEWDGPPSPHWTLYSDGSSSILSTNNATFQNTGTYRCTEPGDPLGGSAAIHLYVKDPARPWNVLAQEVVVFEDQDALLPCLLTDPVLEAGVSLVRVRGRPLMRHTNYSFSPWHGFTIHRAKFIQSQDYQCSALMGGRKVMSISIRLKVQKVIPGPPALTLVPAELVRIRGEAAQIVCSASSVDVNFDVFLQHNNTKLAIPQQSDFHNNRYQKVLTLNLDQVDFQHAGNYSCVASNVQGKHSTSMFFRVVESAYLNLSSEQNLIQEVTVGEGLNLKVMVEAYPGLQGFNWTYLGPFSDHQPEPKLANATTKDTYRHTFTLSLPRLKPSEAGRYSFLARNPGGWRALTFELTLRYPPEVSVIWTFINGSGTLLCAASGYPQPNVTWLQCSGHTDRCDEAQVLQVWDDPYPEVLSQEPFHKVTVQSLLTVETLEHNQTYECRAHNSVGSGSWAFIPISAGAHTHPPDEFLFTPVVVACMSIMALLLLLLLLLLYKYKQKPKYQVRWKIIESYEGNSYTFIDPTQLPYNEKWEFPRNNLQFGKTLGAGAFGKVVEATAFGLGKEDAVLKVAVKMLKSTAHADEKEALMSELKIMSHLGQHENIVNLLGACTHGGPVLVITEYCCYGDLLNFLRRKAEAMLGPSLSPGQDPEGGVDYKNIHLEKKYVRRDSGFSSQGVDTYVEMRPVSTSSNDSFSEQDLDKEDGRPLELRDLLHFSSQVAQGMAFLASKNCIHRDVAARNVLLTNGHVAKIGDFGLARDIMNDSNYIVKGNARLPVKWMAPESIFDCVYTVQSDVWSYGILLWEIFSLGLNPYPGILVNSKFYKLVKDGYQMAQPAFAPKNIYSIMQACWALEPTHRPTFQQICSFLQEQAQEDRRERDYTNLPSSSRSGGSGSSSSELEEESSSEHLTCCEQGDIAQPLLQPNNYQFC

Flt1 = target: T4, Flt1 (Homo sapiens, UniProt P17948); assay: AlphaScreen kinase assay, Flt1; conditions: read-out: IC50, activity toward kinase Flt1
T4 construct: P1826.pETN6 BI-PTP FLT1 M799-D1165-X WT; His6 (N); made in house; host or cells: E. coli (PTP1B co-expressed)
T4 sequence (P17948 with tags, fused parts or gaps): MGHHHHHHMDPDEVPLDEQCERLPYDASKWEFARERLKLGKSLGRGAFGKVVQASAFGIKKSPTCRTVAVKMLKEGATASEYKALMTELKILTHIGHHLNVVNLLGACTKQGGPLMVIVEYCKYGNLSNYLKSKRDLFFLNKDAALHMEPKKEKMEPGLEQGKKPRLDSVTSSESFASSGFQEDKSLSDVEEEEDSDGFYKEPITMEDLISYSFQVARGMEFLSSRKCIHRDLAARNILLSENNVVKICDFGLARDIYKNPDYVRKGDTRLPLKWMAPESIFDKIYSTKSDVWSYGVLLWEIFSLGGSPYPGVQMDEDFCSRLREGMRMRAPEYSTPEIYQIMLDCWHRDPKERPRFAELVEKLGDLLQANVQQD

B-Raf V600E = target: T5, B-Raf V600E (Homo sapiens, UniProt P15056, V600E); assay: AlphaScreen kinase assay, B-Raf V600E; conditions: read-out: IC50, activity toward kinase B-Raf V600E
T5 construct: P4254. pFastBacBD-CDC37 BRAF D437-K722-X, V600E; His6 with pFastBac HT leader (TEV site) (N); made in house; host or cells: Sf9 (baculovirus; chaperone CDC37 co-expressed)
T5 sequence (P15056 with tags, fused parts or gaps V600E): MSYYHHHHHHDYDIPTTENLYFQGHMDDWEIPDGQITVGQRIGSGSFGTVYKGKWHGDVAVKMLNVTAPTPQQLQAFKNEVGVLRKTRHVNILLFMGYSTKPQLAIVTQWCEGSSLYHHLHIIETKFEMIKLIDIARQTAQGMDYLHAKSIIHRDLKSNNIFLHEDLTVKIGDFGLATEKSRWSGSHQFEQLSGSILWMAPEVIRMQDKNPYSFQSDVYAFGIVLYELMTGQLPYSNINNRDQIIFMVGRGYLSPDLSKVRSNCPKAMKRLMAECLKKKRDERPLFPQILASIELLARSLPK

B-Raf = target: T6, B-Raf (Homo sapiens, UniProt P15056); assay: AlphaScreen kinase assay, B-Raf; conditions: read-out: IC50, activity toward kinase B-Raf
T6 construct: purchased Upstate Biotechnology
T6 sequence (P15056 whole entry): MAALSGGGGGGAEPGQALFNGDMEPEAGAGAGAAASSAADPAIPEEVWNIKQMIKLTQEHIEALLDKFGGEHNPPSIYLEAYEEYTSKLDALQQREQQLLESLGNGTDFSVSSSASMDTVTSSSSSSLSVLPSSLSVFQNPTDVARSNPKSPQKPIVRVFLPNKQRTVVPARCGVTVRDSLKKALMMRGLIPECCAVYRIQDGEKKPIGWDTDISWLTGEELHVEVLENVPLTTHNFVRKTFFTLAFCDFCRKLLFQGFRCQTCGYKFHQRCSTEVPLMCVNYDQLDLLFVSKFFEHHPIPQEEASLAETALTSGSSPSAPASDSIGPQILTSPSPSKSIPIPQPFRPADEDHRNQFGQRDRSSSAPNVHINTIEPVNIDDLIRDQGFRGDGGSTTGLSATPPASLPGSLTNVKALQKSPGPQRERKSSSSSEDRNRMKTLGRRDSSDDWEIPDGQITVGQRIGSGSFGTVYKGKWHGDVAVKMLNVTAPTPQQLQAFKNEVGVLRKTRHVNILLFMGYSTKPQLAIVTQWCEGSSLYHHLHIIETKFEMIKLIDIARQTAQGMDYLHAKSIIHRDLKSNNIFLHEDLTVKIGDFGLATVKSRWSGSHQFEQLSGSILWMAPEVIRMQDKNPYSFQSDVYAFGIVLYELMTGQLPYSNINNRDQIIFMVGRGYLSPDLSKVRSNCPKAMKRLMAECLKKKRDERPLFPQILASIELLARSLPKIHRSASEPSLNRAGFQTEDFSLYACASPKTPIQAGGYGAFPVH

Jnk3 = target: T7, Jnk3 (Homo sapiens, UniProt P53779); assay: AlphaScreen kinase assay, Jnk3; conditions: read-out: IC50, activity toward kinase Jnk3
T7 construct: purchased Upstate Biotechnology
T7 sequence (P53779 whole entry): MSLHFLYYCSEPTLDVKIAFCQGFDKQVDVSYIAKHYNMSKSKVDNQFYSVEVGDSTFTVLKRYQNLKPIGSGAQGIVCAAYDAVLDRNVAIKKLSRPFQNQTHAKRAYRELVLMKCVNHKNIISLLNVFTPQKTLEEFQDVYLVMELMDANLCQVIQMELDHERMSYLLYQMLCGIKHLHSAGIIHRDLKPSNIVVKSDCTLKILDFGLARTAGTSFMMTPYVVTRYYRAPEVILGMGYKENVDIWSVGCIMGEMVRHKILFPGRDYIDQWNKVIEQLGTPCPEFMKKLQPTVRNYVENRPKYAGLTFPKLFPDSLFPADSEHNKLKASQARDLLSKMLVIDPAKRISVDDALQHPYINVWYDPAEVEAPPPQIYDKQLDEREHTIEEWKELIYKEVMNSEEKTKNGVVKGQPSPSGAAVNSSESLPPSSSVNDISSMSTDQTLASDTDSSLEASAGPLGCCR

Jnk2 = target: T8, Jnk2 (Homo sapiens, UniProt P45984); assay: AlphaScreen kinase assay, Jnk2; conditions: read-out: IC50, activity toward kinase Jnk2
T8 construct: purchased Roche Protein Expression Group (Indianapolis, IN)
T8 sequence (P45984 whole entry): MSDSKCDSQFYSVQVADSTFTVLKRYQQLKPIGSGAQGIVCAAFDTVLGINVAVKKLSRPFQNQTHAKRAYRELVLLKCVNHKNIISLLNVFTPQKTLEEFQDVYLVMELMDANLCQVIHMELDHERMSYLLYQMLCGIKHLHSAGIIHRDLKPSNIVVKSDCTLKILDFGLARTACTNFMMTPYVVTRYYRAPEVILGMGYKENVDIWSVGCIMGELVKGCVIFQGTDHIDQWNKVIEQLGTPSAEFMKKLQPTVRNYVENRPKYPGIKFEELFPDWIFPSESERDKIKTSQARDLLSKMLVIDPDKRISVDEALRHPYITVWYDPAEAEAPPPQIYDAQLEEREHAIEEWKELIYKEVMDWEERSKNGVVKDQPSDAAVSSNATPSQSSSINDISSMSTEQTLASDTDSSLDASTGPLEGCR
Method in brief: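 Inhibition reads as diminished acceptor emission, since unphosphorylated peptide fails to bridge antibody acceptor beads and streptavidin donor beads. Titration: eight points, 1:3 steps, stocks at 20 mM in DMSO.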

Src = target: T9, Src (Homo sapiens, UniProt P12931); assay: AlphaScreen kinase assay, Src; conditions: read-out: IC50, activity toward kinase Src
T9 construct: P1144. pET-N6 BI-PTP SRC V86-L536-X; made in house

Fak = target: T10, Fak (Homo sapiens, UniProt Q05397); assay: AlphaScreen kinase assay, Fak; conditions: read-out: IC50, activity toward kinase Fak
T10 construct: P1358.pFastBacHtb FAK S411-Q686-X; His6 with pFastBacHTb leader (TEV site) (N); made in house; host or cells: Sf9 (baculovirus)
T10 sequence (Q05397 411-686): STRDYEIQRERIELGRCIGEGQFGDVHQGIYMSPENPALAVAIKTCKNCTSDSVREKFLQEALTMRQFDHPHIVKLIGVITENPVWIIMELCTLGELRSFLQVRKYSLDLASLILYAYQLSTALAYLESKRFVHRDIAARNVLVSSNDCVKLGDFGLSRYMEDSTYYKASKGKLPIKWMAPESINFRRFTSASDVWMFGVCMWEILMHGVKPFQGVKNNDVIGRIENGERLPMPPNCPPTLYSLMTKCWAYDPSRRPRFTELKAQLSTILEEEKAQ

FGFR1 = target: T11, FGFR1 (Homo sapiens, UniProt P11362, C488A/C584S); assay: AlphaScreen kinase assay, FGFR1; conditions: read-out: IC50, activity toward kinase FGFR
T11 construct: P1351.pET N6 BI-PTP FGFR A458-E765-X C488A, C584S; made in house; host or cells: E. coli (PTP1B co-expressed)
T11 sequence (P11362 458-765 C488A/C584S): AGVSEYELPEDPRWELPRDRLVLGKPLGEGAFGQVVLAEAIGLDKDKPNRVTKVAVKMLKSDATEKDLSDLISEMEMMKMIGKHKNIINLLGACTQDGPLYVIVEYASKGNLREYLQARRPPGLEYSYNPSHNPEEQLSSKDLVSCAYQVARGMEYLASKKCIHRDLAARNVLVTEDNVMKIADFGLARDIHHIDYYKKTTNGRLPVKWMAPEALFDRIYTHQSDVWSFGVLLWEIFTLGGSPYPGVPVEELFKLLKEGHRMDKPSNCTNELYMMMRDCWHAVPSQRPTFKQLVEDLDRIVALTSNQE

c-Raf-1 = target: T12, c-Raf-1 (Homo sapiens, UniProt P04049); assay: AlphaScreen kinase assay, c-Raf-1; conditions: read-out: IC50, activity toward kinase c-Raf-1
T12 construct: purchased Upstate Biotechnology
T12 sequence (P04049 whole entry): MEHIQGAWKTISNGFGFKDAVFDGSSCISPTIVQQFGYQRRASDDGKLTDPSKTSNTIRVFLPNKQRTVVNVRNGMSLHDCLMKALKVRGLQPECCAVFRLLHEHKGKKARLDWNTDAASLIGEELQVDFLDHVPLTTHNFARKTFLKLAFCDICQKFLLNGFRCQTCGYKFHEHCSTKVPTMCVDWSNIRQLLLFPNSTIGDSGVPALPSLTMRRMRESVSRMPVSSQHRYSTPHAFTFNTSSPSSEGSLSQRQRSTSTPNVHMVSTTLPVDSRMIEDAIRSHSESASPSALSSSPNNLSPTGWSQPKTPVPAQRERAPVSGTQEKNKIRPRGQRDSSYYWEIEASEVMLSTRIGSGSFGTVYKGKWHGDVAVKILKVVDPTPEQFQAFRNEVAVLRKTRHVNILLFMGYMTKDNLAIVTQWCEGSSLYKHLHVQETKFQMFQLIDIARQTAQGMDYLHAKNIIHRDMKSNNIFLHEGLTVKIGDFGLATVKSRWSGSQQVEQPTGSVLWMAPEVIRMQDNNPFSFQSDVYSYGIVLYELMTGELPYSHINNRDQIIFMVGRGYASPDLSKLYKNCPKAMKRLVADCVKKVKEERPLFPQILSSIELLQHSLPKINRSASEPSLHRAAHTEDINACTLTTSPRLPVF

Ret = target: T13, Ret (Homo sapiens, UniProt P07949); assay: AlphaScreen kinase assay, Ret; conditions: read-out: IC50, activity toward kinase Ret
T13 construct: P1378.pET-SF BI-PTP RET H661-R1012 HIS; made in house
T13 sequence (P07949 with tags, fused parts or gaps): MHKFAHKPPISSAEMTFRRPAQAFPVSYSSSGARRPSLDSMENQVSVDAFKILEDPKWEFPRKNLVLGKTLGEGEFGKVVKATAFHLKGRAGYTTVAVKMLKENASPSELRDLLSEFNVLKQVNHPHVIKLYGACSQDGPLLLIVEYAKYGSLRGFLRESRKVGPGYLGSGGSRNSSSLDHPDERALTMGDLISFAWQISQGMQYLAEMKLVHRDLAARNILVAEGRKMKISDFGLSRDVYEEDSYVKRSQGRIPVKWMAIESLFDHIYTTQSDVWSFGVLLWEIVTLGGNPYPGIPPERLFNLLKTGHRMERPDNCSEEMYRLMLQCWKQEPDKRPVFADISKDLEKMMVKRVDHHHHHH

Kdr = target: T14, Kdr (Homo sapiens, UniProt P35968); assay: Z'-Lyte FRET kinase assay (Invitrogen), Kdr; conditions: read-out: IC50, activity toward kinase Kdr
T14 construct: purchased Invitrogen (assay run by Invitrogen)

Measured: IC50

T1 sequence (P10721 with tags, fused parts or gaps): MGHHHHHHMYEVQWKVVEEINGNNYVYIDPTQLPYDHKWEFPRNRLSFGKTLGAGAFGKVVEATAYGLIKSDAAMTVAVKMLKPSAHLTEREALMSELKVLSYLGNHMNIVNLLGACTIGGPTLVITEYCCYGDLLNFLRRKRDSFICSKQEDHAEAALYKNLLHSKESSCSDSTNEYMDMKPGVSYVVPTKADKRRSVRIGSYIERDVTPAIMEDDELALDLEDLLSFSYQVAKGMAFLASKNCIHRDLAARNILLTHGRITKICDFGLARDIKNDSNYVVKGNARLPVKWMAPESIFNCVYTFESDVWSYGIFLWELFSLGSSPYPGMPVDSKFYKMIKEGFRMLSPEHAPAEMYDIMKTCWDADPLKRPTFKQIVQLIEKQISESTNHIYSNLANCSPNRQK

CCCCNC(=O)n1ccc2c(C(=O)c3c[nH]c4ncc(-c5ccccc5)cc34)cccc21 [Compound P-1576, 4-(5-Phenyl-1H-pyrrolo[2,3-b]pyridine-3-carbonyl)-indole-1-carboxylic acid butylamide]
≤ 10 µM: Kit | Jnk1 | Fms | Flt1 | B-Raf V600E | B-Raf | Jnk3 | Jnk2

CCCCNC(=O)Nc1cccc(Cc2c[nH]c3ncc(-c4cccnc4)cc23)c1 [Compound P-1447, 1-butyl-3-[3-(5-pyridin-3-yl-1H-pyrrolo[2,3-b]pyridin-3-ylmethyl)-phenyl]-urea]
not listed: c-Raf-1 | Ret | Kdr
≤ 10 µM: all other assays above

O=C(Nc1ccccc1)Nc1cccc(C(=O)c2c[nH]c3ncc(-c4cccnc4)cc23)c1 [Compound P-1591, 1-Phenyl-3-[3-(5-pyridin-3-yl-1H-pyrrolo[2,3-b]pyridine-3-carbonyl)-phenyl]-urea]
not listed: Src | Fak | c-Raf-1 | Ret | Kdr
≤ 10 µM: all other assays above

COCCNC(=O)Nc1cccc(C(=O)c2c[nH]c3ncc(-c4cccnc4)cc23)c1 [Compound P-1566, 1-(2-Methoxy-ethyl)-3-[3-(5-pyridin-3-yl-1H-pyrrolo[2,3-b]pyridine-3-carbonyl)-phenyl]-urea]
≤ 10 µM: Kit | Jnk1 | Fms | Flt1 | B-Raf V600E | B-Raf | Jnk3 | Jnk2

CCCS(=O)(=O)Nc1ccc(F)c(C(=O)c2c[nH]c3ncc(-c4cnn(C)c4)cc23)c1F [Compound P-1864, Propane-1-sulfonic acid {2,4-difluoro-3-[5-(1-methyl-1H-pyrazol-4-yl)-1H-pyrrolo[2,3-b]pyridine-3-carbonyl]-phenyl}-amide]
≤ 10 µM: Kit | Jnk1 | Fms | c-Raf-1 | B-Raf V600E | B-Raf | Jnk3 | Jnk2

CCCCNC(=O)Nc1cccc(C(=O)c2c[nH]c3ncc(-c4cccnc4)cc23)c1 [Compound P-1445, 1-Butyl-3-[3-(5-pyridin-3-yl-1H-pyrrolo[2,3-b]pyridine-3-carbonyl)-phenyl]-urea]
not listed: c-Raf-1 | Ret | Kdr
≤ 10 µM: all other assays above

CS(=O)(=O)Nc1ccc(F)c(C(=O)c2c[nH]c3ncc(-c4ccccc4)cc23)c1 [Compound P-0308, N-[4-Fluoro-3-(5-phenyl-1H-pyrrolo[2,3-b]pyridine-3-carbonyl)-phenyl]-methanesulfonamide]
≤ 10 µM: Ret | Jnk1 | B-Raf V600E | FGFR1 | Jnk3 | Jnk2 | Kdr

O=C(NCc1ccccc1)Nc1cccc(C(=O)c2c[nH]c3ncc(-c4cccnc4)cc23)c1 [Compound P-1554, 1-Benzyl-3-[3-(5-pyridin-3-yl-1H-pyrrolo[2,3-b]pyridine-3-carbonyl)-phenyl]-urea]
not listed: Src | Fak | c-Raf-1 | Ret | Kdr
≤ 10 µM: all other assays above

CCCCNC(=O)Nc1ccc(F)c(C(=O)c2c[nH]c3ncc(OC)cc23)c1F [Compound P-1567, 1-Butyl-3-[2,4-difluoro-3-(5-methoxy-1H-pyrrolo[2,3-b]pyridine-3-carbonyl)-phenyl]-urea]
≤ 10 µM: Kit | Jnk1 | Fms | Flt1 | B-Raf V600E | B-Raf | Jnk3 | Jnk2

CCCS(=O)(=O)Nc1ccc(F)c(C(=O)c2c[nH]c3ncc(-c4ccc(C(=O)N(C)C)cc4)cc23)c1F [Compound P-1547, 4-{3-[2,6-Difluoro-3-(propane-1-sulfonylamino)-benzoyl]-1H-pyrrolo[2,3-b]pyridin-5-yl}-N,N-dimethyl-benzamide]
not listed: Src | Fak | Ret | Kdr
≤ 10 µM: all other assays above

CCCS(=O)(=O)Nc1ccc(F)c(C(=O)c2c[nH]c3ncc(-c4ccc(C(=O)N5CCOCC5)cc4)cc23)c1F [Compound P-1548, Propane-1-sulfonic acid (2,4-difluoro-3-{5-[4-(morpholine-4-carbonyl)-phenyl]-1H-pyrrolo[2,3]-pyridine-3-carbonyl}-phenyl)-amide]
not listed: Src | Fak | c-Raf-1 | Ret | Kdr
≤ 10 µM: all other assays above
